Activity calls are given as the source filed them.
Key:
HEK293 = assay: membrane integrity loss in HEK cells – cell-based, fluorescence, cytotoxicity control for IDE activator project, dose response (AID 588440); type: functional; settings: Homo sapiens;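 also: cytotoxicity by LDH release measuring loss of membrane integrity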
[1] = biological target: T1, Sentrin-specific protease 8 (Homo sapiens, UniProt Q96LD8); type: functional
T1 sequence (Q96LD8 whole entry): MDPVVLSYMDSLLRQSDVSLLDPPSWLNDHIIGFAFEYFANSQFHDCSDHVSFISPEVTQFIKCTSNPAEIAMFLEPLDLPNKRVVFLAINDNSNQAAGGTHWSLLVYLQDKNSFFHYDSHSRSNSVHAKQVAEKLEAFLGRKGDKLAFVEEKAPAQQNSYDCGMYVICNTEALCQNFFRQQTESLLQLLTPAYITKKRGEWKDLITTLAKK

[2] = biological target: T1, Sentrin-specific protease 8; type: functional; remark: listed apart in the source
[3] = biological target: T2, RNA-binding protein pos-1 (Caenorhabditis elegans, UniProt G5EF15); assay: disruptors of C. elegans POS-1 RNA interaction – biochemical, fluorescence polarization, dose response (AID 1964);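 also: purified POS-1 fused to maltose binding protein made in E. coli; potency of compounds blocking POS-1 binding to fluorescent RNA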
T2 sequence (G5EF15 whole entry): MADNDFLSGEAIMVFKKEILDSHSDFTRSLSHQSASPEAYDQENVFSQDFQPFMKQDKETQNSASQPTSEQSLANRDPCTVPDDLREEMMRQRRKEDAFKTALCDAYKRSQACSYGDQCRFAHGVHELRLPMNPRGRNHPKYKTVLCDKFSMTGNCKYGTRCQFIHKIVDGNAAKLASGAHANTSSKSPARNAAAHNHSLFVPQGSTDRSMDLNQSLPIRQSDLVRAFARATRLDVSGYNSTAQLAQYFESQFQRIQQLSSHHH

[4] = biological target: Tyrosyl-DNA phosphodiesterase 2 (Homo sapiens, UniProt O95551); assay: potency against TDP2 phosphodiesterase activity – biochemical, epi absorbance, IC50, dose response (AID 743297)
[5] = biological target: Intestinal-type alkaline phosphatase (Mus musculus, UniProt P24822); assay: PubChem AID 488874; type: functional
Intestinal-type alkaline phosphatase, sequence (P24822 whole entry): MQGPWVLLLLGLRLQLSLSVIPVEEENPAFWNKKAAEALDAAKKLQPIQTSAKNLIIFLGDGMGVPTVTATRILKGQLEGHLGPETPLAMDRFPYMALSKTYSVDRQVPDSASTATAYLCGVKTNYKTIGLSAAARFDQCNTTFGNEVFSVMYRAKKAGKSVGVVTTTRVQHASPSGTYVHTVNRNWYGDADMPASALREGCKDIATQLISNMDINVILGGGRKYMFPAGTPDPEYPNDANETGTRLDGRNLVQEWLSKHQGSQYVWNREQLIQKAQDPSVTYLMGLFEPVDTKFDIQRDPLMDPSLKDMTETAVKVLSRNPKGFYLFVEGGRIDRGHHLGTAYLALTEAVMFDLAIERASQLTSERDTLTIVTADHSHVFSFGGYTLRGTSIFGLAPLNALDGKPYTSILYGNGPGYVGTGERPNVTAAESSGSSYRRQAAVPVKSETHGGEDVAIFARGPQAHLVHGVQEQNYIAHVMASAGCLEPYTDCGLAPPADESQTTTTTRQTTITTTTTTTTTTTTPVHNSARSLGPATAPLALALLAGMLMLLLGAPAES

[6] = biological target: Hepatocyte growth factor receptor (Homo sapiens, UniProt P08581); type: functional;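 also: kinase panel profiling across the kinome, with MET as the panel member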
Focal adhesion kinase 1 = Focal adhesion kinase 1 (Homo sapiens, UniProt Q05397); type: functional;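 also: measured as one member of a kinome panel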
[7] = biological target: Serine/threonine-protein kinase Nek2 (Homo sapiens, UniProt P51955); type: functional
[8] = biological target: Tyrosine-protein kinase ABL1 (Homo sapiens, UniProt P00519); type: functional
LIM domain kinase 1 = LIM domain kinase 1 (Homo sapiens, UniProt P53667); assay: Navigating the Kinome. Panel member name: LIMK1; type: functional
LIM domain kinase 1, sequence (P53667 whole entry, the tested form may be a part): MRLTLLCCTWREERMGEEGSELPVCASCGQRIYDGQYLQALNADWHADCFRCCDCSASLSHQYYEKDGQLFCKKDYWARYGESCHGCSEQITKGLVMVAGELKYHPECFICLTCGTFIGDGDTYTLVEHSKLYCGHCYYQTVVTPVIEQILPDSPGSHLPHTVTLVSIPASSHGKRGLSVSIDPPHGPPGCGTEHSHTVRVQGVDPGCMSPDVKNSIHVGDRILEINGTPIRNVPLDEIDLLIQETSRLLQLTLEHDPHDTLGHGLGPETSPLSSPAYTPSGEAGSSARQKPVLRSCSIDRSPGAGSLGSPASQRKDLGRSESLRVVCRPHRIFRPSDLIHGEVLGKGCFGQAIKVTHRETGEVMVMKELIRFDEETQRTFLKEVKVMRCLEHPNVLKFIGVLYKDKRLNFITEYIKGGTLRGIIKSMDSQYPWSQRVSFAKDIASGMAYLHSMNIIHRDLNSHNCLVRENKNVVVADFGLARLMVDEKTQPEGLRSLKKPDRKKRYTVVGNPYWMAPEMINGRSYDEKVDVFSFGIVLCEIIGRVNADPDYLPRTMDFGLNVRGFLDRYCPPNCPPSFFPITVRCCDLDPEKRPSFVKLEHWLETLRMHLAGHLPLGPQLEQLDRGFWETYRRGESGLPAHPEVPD

[9] = biological target: Serine/threonine-protein kinase 17A (Homo sapiens, UniProt Q9UEE5); type: functional
Serine/threonine-protein kinase 17A, sequence (Q9UEE5 whole entry): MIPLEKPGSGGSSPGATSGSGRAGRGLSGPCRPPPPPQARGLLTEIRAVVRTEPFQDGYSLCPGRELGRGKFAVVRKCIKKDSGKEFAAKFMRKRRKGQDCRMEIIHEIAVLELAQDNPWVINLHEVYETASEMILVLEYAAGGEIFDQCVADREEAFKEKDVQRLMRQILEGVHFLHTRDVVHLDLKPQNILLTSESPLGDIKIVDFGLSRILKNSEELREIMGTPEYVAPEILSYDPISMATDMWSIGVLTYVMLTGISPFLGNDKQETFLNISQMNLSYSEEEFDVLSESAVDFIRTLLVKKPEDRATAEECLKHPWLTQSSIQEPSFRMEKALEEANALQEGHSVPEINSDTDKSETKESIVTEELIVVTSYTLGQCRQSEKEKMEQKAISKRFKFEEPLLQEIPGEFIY

Misshapen-like kinase 1 = Misshapen-like kinase 1 (Homo sapiens, UniProt Q8N4C8); type: functional;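 also: kinome panel screen with MINK as the panel member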
Misshapen-like kinase 1, sequence (Q8N4C8 whole entry): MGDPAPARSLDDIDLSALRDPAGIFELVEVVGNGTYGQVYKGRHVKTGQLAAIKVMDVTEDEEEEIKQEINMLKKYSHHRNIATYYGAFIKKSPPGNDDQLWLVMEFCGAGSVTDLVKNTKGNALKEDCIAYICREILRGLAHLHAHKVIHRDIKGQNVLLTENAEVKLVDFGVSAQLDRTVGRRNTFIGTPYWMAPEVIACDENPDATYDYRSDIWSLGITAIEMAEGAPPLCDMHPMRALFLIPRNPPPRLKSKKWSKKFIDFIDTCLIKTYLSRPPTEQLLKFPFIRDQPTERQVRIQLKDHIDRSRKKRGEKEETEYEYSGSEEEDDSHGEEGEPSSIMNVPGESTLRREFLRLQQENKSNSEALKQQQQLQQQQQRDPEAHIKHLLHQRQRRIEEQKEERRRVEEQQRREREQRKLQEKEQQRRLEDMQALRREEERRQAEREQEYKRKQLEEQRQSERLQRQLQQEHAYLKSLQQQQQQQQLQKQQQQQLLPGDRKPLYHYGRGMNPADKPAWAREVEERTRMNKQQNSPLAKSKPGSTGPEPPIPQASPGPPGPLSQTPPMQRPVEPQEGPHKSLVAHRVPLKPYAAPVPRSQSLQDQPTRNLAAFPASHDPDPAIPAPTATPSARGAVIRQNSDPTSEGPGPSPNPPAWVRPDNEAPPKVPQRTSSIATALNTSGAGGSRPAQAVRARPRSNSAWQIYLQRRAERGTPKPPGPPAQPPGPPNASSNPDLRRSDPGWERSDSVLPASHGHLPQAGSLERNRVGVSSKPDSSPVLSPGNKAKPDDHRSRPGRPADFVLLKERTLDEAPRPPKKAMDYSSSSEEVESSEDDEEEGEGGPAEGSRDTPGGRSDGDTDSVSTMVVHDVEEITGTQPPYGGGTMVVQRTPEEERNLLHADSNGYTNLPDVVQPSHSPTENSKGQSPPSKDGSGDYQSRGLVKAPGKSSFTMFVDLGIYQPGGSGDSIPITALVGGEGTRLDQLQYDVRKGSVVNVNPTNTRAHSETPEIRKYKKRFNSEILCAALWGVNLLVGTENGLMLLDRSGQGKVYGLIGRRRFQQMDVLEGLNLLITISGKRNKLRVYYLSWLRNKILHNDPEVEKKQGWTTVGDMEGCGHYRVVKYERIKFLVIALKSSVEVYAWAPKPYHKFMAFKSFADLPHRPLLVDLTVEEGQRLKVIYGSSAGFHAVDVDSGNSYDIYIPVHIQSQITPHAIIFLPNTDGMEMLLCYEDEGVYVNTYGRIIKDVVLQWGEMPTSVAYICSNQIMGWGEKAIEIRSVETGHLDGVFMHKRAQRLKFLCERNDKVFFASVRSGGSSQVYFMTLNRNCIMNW

[10] = biological target: Cell division cycle 7-related protein kinase (Homo sapiens, UniProt O00311); type: functional;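 also: value obtained from a kinome-wide kinase panel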
Cell division cycle 7-related protein kinase, sequence (O00311 whole entry): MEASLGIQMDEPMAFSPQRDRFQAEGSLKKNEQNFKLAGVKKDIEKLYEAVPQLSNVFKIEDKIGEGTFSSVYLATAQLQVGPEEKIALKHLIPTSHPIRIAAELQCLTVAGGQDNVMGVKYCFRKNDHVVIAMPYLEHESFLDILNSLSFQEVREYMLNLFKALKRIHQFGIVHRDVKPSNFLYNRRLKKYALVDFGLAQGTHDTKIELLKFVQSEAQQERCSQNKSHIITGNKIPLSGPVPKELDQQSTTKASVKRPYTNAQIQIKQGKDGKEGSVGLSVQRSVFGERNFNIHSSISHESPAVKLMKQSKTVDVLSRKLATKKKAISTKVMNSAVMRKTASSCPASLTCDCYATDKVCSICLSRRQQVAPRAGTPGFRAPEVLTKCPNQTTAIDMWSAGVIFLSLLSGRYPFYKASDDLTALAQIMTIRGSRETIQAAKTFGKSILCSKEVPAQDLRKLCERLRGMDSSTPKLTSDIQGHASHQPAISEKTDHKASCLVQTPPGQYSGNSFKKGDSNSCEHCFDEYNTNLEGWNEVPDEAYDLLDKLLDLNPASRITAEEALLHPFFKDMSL

[11] = biological target: Calcium/calmodulin-dependent protein kinase type II subunit delta (Homo sapiens, UniProt Q13557); type: functional
Calcium/calmodulin-dependent protein kinase type II subunit delta, sequence (Q13557 whole entry): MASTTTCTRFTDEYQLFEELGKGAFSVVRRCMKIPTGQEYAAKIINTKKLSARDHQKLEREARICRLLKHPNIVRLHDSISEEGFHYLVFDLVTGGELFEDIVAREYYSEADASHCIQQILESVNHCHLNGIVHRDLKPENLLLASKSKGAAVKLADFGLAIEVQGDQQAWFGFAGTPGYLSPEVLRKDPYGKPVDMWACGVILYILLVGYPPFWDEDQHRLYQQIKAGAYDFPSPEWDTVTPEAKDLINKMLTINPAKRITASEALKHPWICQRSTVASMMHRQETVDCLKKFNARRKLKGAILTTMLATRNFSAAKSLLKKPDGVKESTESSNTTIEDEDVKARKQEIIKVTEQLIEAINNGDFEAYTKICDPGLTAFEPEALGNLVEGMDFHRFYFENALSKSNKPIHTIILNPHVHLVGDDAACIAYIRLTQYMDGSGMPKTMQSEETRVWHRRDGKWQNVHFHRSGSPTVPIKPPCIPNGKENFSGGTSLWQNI

[12] = biological target: Cyclin-dependent kinase 2 (Homo sapiens, UniProt P24941); type: functional;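 also: CDK2 measured as one member of a broad kinome profiling panel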
cells [13] = type: functional, cell-based
[14] = Trypanosoma cruzi growth suppression in host cells – NIH3T3 host cells, beta-gal luminescence, confirmation (AID 2044); type: functional, cell-based;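 also: intracellular parasites grown in NIH/3T3 mouse fibroblasts as host cells; luminescent beta-galactosidase reporter signal from transgenic T. cruzi replicating inside host cells; inhibitors lower the luminescence signal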
[15] = fluconazole-exposed Candida albicans growth modulators – fluorescence, retest, confirmation (AID 2467); type: functional, cell-based
cells [16] = assay: cells
[17] = biological target: ATP-dependent molecular chaperone HSP82 (Candida albicans (strain WO-1) (Yeast), UniProt C4YTQ8); assay: steroid-induced GRE reporter decrease in yeast – S. cerevisiae, luminescence, Hsp90 inhibitor project, dose response (AID 2400); type: functional, cell-based;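 also: beta-galactosidase luminescence from glucocorticoid response element reporter as proxy for Hsp90 function; inhibitor potency where signal loss means Hsp90 inhibition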
ATP-dependent molecular chaperone HSP82, sequence (C4YTQ8 whole entry): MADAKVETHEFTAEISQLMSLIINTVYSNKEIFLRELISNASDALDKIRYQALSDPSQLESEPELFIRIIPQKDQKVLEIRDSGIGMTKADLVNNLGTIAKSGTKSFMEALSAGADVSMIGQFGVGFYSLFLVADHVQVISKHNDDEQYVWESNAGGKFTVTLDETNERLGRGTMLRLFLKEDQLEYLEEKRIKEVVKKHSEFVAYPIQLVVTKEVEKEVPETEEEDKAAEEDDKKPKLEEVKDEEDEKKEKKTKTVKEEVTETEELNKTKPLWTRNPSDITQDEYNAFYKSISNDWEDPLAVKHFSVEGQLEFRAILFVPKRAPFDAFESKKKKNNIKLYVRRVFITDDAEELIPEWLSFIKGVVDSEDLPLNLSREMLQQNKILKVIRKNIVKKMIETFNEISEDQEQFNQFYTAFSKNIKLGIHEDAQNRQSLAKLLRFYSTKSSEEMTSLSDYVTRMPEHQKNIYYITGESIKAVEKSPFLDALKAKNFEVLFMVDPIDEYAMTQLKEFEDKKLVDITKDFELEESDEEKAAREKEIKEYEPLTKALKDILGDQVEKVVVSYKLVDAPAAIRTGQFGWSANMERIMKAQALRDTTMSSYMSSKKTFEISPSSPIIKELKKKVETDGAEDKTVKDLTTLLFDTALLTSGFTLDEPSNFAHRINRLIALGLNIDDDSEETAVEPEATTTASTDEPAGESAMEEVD

[18] = biological target: T3, Rac GTPase-activating protein 1 (Homo sapiens, UniProt Q9H0H5); assay: blockers of MgcRacGAP-driven Rac1 GTP hydrolysis – biochemical, ADP Hunter fluorescence, primary and confirmatory, confirmation (AID 624330); type: functional
T3 sequence (Q9H0H5 whole entry): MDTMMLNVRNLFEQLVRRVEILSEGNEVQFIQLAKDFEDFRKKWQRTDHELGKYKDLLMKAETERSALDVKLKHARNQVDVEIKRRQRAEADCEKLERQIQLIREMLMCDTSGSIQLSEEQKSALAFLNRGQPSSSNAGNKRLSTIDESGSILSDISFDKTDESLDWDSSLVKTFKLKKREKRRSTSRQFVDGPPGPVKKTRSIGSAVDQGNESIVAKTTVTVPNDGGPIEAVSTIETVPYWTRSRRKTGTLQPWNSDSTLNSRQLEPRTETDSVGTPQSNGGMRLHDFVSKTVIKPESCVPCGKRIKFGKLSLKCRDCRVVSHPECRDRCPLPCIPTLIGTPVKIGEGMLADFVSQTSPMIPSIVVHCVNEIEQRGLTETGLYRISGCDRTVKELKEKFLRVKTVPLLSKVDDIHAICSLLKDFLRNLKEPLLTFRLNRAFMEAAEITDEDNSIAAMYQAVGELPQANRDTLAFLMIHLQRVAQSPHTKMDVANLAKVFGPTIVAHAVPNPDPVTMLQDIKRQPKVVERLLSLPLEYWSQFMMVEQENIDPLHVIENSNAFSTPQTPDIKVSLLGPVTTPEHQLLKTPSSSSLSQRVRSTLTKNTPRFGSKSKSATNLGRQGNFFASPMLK

[19] = viability loss in CEM21 cells – cell-based, CellTiter-Glo luminescence, cherry-picked, cytotoxicity control for viral fusion inhibitor project, dose response (AID 652042); type: functional;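 also: potency for signal decrease meaning cytotoxicity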
[20] = off-target signal loss in HeLa-CEM21 co-culture – HeLa F-luc CTL cells, cherry-picked, counter-screen for HIV-1 Env fusion inhibitor project, dose response (AID 652040); type: functional, cell-based;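 also: potency for signal decrease marking cytotoxic or nonspecific inhibition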
[21] = viability loss in HeLa cells – cytotoxicity control for MgcRacGAP inhibitor project, dose response (AID 624300); type: functional

## CNC[C@H](Cc1ccccc1)NC[C@@H](Cc1cccc2ccccc12)NCCc1ccc(C)cc1
HEK293
  IC50: 9.04 µM (active)

## Nc1nnc2c(n1)CCCC2
[1]
  IC50: 2.98 µM (active)
[2]
  IC50: 6.32 µM (active)
[3]
  EC50: 104 µM (active)

## O=C(Cc1ccccc1Cl)NC1(O)C(=O)c2ccccc2C1=O
[4]
  IC50: 11.5 µM (inactive)

## O=C(N/N=C/c1c(O)ccc2ccccc12)c1[nH]ncc1Br
[5]
  IC50: 36.5 µM (active)

## Nc1c(-c2ccc(NC(=O)Nc3cccc(C(F)(F)F)c3)cc2)cnc2c(-c3ccc4c(c3)OCO4)cnn12
[6]
  Ki: > 2.51 µM (inactive)
Focal adhesion kinase 1
  Ki: > 6.31 µM (inactive)
[7]
  Ki: 1.26 µM (active)
[8]
  Ki: 0.2 µM (active)
LIM domain kinase 1
  Ki: > 3.16 µM (inactive)

## O=C(Nc1cc(-c2c[nH]c3ncccc23)cc(Cl)n1)c1ccccc1
[9]
  Ki: 1.58 µM (active)
Misshapen-like kinase 1
  Ki: > 2.51 µM (inactive)
[10]
  Ki: 0.00158 µM (active)
[11]
  Ki: > 3.16 µM (inactive)
[12]
  Ki: > 3.16 µM (inactive)

## CCN1C(=Cc2sc3ccccc3[n+]2C)C=Cc2cccc(C)c21
Cells [13]
  EC50: > 12 µM (not active)
[14]
  EC50: < 0.1 µM (active)
[15]
  EC50: 0.054 µM (active)
Cells [16]
  EC50: < 0.004 µM (active)
[17]
  EC50: 37.3 µM (active)
[18]
  IC50: 55.9 µM (active)
[19]
  AC50: 4.69 µM (active)
[20]
  AC50: 9.01 µM (active)
[21]
  CC50: 13.8 µM (active)

Reference: ChEMBL document CHEMBL1201862, “PubChem BioAssay data set” (2004)
